From patent US11986450B2, “Methods and compositions for treating infection and inflammation with selenocyanate” (National Jewish Health, priority 2017, dated 2024)

Assays:
[1] = tested on: M. massiliense clinical isolate; experiment: Exogenous catalase inhibition of LPO/SeCN killing of NTM; assay type: cell-based; conditions: high levels of catalase; 1 mM SeCN, 1600 mU/mL LPO
Experimental: FIG. 29A M. massiliense clinical isolate was incubated with 1 mM SeCN and either 1600 mU/mL LPO alone or with catalase.
It is well known that NTM species express catalase genes and have the ability to produce H2O2 (Wayne L G, Diaz G A. Detection of a novel catalase in extracts of Mycobacterium avium and Mycobacterium intracellulare. Infection and immunity. 1988; 56(4):936-41.). As H2O2 is a required substrate of LPO and no exogenous source of H2O2 is needed for LPO/—SeCN-mediated killing, it is expected that NTM provides the H2O2 for utilization by LPO to generate HOSeCN. The inventors have performed a set of experiments that provide evidence that endogenously produced H2O2 plays a role in the LPO/—SeCN-mediated killing of NTM. In FIG. 29, exogenous catalase is utilized in an attempt to inhibit the LPO-mediated generation of HOSeCN. At high levels of catalase, 100% of the killing was inhibited. The high levels of catalase required for inhibition may be due to several reasons, including instability of the enzyme on LB agar and the possibility that LPO may be bound to and concentrated on the bacterial surface, as has been previously described for Streptococci (Pruitt K M, et al. Lactoperoxidase binding to streptococci. Infection and immunity. 1979; 25(1):304-9). […]

[2] = tested on: 16HBE cells; experiment: Sec-TrxR inhibition and HOSCN toxicity in lung cells (LDH release); assay type: cell-based, human; conditions: auranofin 1 hour, then 300 μM HOSCN, viability 24 hours later
Experimental: FIG. 19. […] 16HBE cells were treated with auranofin at increasing concentrations for 1 hour and then exposed to 300 μM of either HOSCN or HOCl and viability was assessed by lactate dehydrogenase release 24 hours later. Vehicle (Veh).
Additional studies determine both leukocyte viability and bacterial viability after ^−SCN treatments and under simulated ^−SCN conditions with and without pharmacological inhibition of Sec-TrxR using auranofin and aurothioglucose (Rigobello, M. P., et al. (2008) Gold(I) complexes determine apoptosis with limited oxidative stress in Jurkat T cells. Eur J Pharmacol 582, 26-34). […] These assays have been described to study bacterial killing by neutrophils (Hampton, M. B., and Winterbourn, C. C. (1999) Methods for quantifying phagocytosis and bacterial killing by human neutrophils. J Immunol Methods 232, 15-22). Neutrophil death is assessed by flow cytometry using % of Annexin V (apoptosis marker) and propidium iodide (PI, necrosis marker) positive cells in each gate as shown in FIG. 7.

[3] = target: DmTrxR (containing Cys) (Drosophila melanogaster, UniProt P91938); experiment: Inactivation of TrxR by oxidants; assay type: biochemical
Experimental: (§1) Based on data, it is expected that Sec-TrxR1 is able to metabolize both HOSCN and HOSeCN but not HOCl, and that Cys-TrxR's is unable to metabolize these oxidants. The active site Cys or Sec residue of each respective enzyme is oxidized to either Cys-SO2^− or Sec-SeO2^−. The Cys-TrxR cannot recover from this oxidation while the Sec-TrxR can. To test this, an inactivation assay is performed followed by structural analysis of the protein by MS. In the inactivation assay, (i) enzymes are reduced with NADPH, (ii) the enzymes are treated with oxidant followed by desalting to remove oxidant, and (iii) the enzyme is assayed for activity. […] The proteins are proteolyzed followed by LC-MS analyses. The LC-MS profiles are compared to control samples not treated with oxidant. This determines the exact mechanism of inactivation for each enzyme. […] This would explain why HOCl is highly inflammatory (nonspecific oxidation), and why HOSCN is used as a bactericide because it can rapidly inactivate proteins/enzyme by oxidation of sulfur amino acids (Cys, Met), but can be metabolized by the host cell by Sec-TrxR.

[4] = target: Sec-containing TrxR2 (Sec-TrxR2) (Mus musculus, UniProt Q9JLT4); experiment: Inactivation of TrxR by oxidants; assay type: biochemical
Experimental: as §1

Chain of Sec-containing TrxR2 (Sec-TrxR2) (Q9JLT4 35-524): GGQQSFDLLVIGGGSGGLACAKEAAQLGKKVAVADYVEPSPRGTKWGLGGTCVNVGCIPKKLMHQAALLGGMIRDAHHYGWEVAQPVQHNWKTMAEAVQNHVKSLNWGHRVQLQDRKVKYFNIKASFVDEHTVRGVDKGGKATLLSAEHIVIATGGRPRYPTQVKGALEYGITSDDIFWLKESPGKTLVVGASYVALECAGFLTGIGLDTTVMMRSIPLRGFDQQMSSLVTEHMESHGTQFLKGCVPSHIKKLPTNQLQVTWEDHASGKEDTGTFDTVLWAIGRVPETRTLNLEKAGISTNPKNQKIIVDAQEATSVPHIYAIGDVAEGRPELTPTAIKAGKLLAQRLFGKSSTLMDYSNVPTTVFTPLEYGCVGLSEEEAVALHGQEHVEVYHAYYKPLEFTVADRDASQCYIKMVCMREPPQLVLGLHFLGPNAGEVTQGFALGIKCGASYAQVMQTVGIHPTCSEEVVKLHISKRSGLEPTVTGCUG
Chain of DmTrxR (containing Cys) (P91938 112-596 limits assumed): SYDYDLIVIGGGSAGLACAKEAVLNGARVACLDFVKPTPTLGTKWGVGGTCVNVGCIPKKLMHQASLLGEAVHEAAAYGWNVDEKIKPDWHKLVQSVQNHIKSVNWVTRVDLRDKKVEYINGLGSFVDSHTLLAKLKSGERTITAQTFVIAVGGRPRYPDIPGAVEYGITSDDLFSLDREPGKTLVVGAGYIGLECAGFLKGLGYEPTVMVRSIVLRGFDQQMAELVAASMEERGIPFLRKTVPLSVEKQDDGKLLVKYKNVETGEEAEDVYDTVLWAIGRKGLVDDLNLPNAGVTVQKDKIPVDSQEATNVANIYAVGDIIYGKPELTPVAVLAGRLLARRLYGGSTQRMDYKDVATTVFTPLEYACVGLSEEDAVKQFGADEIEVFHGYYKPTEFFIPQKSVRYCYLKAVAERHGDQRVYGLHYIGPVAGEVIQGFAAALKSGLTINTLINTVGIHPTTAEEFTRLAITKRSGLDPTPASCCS

## catalase
[1]
  Inhibition of LPO/SeCN-mediated killing: 100%

## CC(=O)OC[C@H]1O[C@@H]([S-])[C@H](OC(C)=O)[C@@H](OC(C)=O)[C@@H]1OC(C)=O.CCP(CC)CC.[Au+] [auranofin]
[2]
  Sensitization of lung cells to HOSCN-mediated toxicity: sensitizes lung cells to HOSCN-mediated toxicity

## OCl [HOCl, hypochlorite]
[3]
  Inactivation of DmTrxR by oxidant: is inactivated
[4]
  Inactivation of Sec-TrxR2 by oxidant: resists inactivation
